Results published in US20250250567A1, “PROTOZOA TRANSCRIPTION FACTOR INHIBITOR” (priority 2022, published 2025).
pKd: −log10 of the molar value.

Tests used:
[1] = tested on: Raw264.7 cells, NIH3T3 cells; experiment: cytotoxicity in mouse cell lines (DNA release, LDH activity in culture supernatant); assay type: cell-based; settings: mouse cell lines Raw264.7, NIH3T3; DNA release and LDH activity in culture supernatant
Protocol: (§1) Next, a binding affinity of a PIPA to dsDNA containing the target sequence for the AP2-PIPA (FIG. 1b) was verified. As designed, the AP2-PIPA1 was bound to the target sequence with a high binding activity, that is, a Kd value of 4.0 nM (FIG. 1c). Consistent with previous reports of low off-target toxicity of a PIPA, the AP2-PIPA was not toxic in either mouse cell lines (Raw264.7 cells, NIH3T3 cells) or human cell lines (U937 cells, A549 cells) (FIG. 2a and FIG. 2b). These analysis results support safety of a PIPA at least in the dose range in vitro.

U937 cells, A549 cells = experiment: cytotoxicity in human cell lines (DNA release, LDH activity in culture supernatant); assay type: cell-based; settings: DNA release and LDH activity in culture supernatant
Protocol: as §1

[2] = toxicity of multiple administrations in mice; assay type: in vivo; settings: once daily for 7 days orally or intraperitoneally
Protocol: Mice received various doses of AP2-PIPA1 once daily for 7 days orally or intraperitoneally. On day 8, blood was collected and AST and ALT were measured. Significant difference tests were performed for the 3 mg/kg and 10 mg/kg dose groups relative to the control group for each route of administration.
Furthermore, toxicity of multiple administrations of the AP2-PIPA1 was studied in mice. Mice received various doses of the AP2-PIPA1 once daily for 7 days orally or intraperitoneally. On day 8, blood was collected and AST and ALT were measured (FIG. 5b). Significant difference tests were performed for the 3 mg/kg and 10 mg/kg dose groups relative to the control group for each route of administration.

[3] = tested on: Plasmodium berghei strain; experiment: mouse infection experiment, parasitemia; assay type: in vivo; settings: intraperitoneal
Protocol: Furthermore, an effect of the AP2-PIPA1 was verified in a mouse infection experiment. Mice were infected with a Plasmodium berghei strain and received the AP2-PIPA1 intraperitoneally at each time point (day 1, day 2, day 3, day 4, day 5, day 6, and day 7) shown in the upper schematic diagram in FIG. 6. Blood was collected at 11 or 13 days after the infection to assess parasitemia. […] Multiple administrations of a high dose, i.e., 30 mg/kg are believed to cause toxicity.

[4] = tested on: artemisinin-resistant plasmodium (Pf lek122); experiment: malaria treatment in humanized mice infected with artemisinin-resistant plasmodium; assay type: in vivo; settings: i.p. on days 21-25, humanized NOG-SCID mice
Source text: AP2-PIPA1, which was designed in the same manner as in Example 1, was used to verify an inhibitory effect in vivo. Mice wherein red blood cells had been replaced with human red blood cells were infected with an artemisinin-resistant plasmodium and a therapeutic effect was examined in the thus-infected mice. The effect was verified in the case of administration of a PIPA alone and the case of combined administration with artemisinin.
Humanized mice were created by injecting human red blood cells (RBCs) into NOG-SCID mice. One milliliter of 50% HCT, A+ve red blood cells prepared with 0.5% Albumax and 3.1 mM hypoxanthine was injected into the NOG-SCID mice once daily for 3 weeks until 80% of the human red blood cells were established. The humanized mice were then infected with an artemisinin-resistant plasmodium (Pf lek122) by 4×10^7 RBCS infected with synchronized ring-stage parasites, and checked for parasitemia by determining a rate of Giemsa-stain positive RBCs from the infected mice. On days 21, 22, 23, 24, and 25, AP2-PIPA1 (AP2-1), artemisinin, or both were injected i.p. at the indicated dose.

[5] = tested on: P. falciparum 3D7 laboratory strain; experiment: proliferation and life cycle of P. falciparum 3D7 at blood stage in vitro (Giemsa staining, FACS); assay type: cell-based; settings: for life cycle of P. falciparum (microscopic observation, Giemsa staining): 24 and 48 hours after infection; for transition to schizont stage / schizont formation: in vitro culture
Protocol: Then, an effect of the AP2-PIPA on proliferation of a P. falciparum 3D7 laboratory strain at a blood stage in vitro was examined. Human red blood cells were infected with P. falciparum and cultured in the presence or absence of the AP2-PIPA. Microscopic observation with Giemsa staining and quantitative count of parasites and their stages by FACS analysis were performed at 24 and 48 hours after the infection.

[6] = target: dsDNA containing the target sequence TGCATG (SEQ ID NO: 1), AP2-Sc binding sequence; experiment: binding affinity of PIPA to dsDNA containing the target sequence; design: species or system P. falciparum
Protocol: FIG. 1b is a schematic diagram showing a DNA fragment used in one embodiment of the present disclosure to analyze a binding strength of AP2-PIPA1 to its target sequence;
as §1

[7] = toxicity of a single intraperitoneal administration in mice; assay type: in vivo
Protocol: (§2) Toxicity of a single intraperitoneal administration of AP2-PIPA1 was studied in mice. […] Observation of viability and general conditions, measurement of body weight, a hematology test, a blood chemistry test, and necropsy were performed as toxicity assessment indices. […] However, the value for each individual in these groups falls within a background value (34 to 58 IU/L) and thus the changes are determined to be due to physiological variation.
as §2, with “Furthermore, toxicity of a” for “Toxicity of a”, “administration of the AP2-PIPA1 was” for “administration of AP2-PIPA1 was”

[8] = tested on: artemisinin-resistant plasmodium strain, various Plasmodium strains; experiment: proliferation of artemisinin-resistant and other Plasmodium strains in human red blood cells in vitro; assay type: cell-based; settings: 72 hours after infection
Protocol: Plasmodia were cultured in red blood cells in the presence of various concentrations of a PIPA and, 72 hours later, parasitemia was assessed;
An effect of the AP2-PIPA on proliferation of an artemisinin-resistant strain in vitro was further examined (FIG. 4). Human red blood cells were infected with various Plasmodium strains and cultured in the presence or absence of the AP2-PIPA at various concentrations. Parasitemia was evaluated at 72 hours after the infection to verify a degree of proliferation of Plasmodium treated with various concentrations of the AP2-PIPA, and an IC50 value for the AP2-PIPA in each Plasmodium strain was calculated from the above results. As a result, the AP2-PIPA1 inhibited proliferation of the artemisinin-resistant plasmodium strain with a lower IC50.

Plasmodium spp. = settings: known; cited from earlier work
[9] = 3 and 10 mg/kg vs control, blood on day 8
[10] = 30 mg/kg dose group, multiple administrations
[11] = single intraperitoneal administration 5, 10, 20 mg/kg, observed 7 days

## CC(=O)Nc1cc(C(=O)Nc2cc(C(=O)NCCC(=O)Nc3cn(C)c(C(=O)Nc4cc(C(=O)NCCCC(=O)Nc5cn(C)c(C(=O)Nc6cc(C(=O)Nc7cc(C(=O)NCCC(=O)Nc8cc(C(=O)NCCC(=O)NCCCN(C)C)n(C)c8)n(C)c7)n(C)c6)n5)n(C)c4)n3)n(C)c2)n(C)c1 [AP2-PIPA1]
[1]
  toxicity (cytotoxicity): not toxic
U937 cells, A549 cells
  toxicity (cytotoxicity): not toxic
[2]; dose range examined
  toxicity of multiple administrations: not prominently toxic
[2]; [9]
  ALT: no significant difference
  AST: no significant difference
[3]; [10]
  mouse death: mouse death
  parasitemia: suppression of parasitemia
[3]; day 1 to day 7, blood at 11 or 13 days after infection
  parasitemia: dose-dependent suppression of parasitemia
[4]; administration alone
  therapeutic effect on malaria infection (parasitemia): a therapeutic effect on malaria infection was confirmed
[4]; combined administration with artemisinin
  therapeutic effect on malaria infection (parasitemia): a therapeutic effect on malaria infection was confirmed
[5]; human red blood cells
  life cycle of P. falciparum (microscopic observation, Giemsa staining): arrested a life cycle of P. falciparum at a trophozoite stage
[5]; human red blood cells, at both 24 and 48 hours after infection
  morphological change (FACS analysis): a morphological change was arrested at the trophozoite stage
[5]
  transition to schizont stage / schizont formation: specifically inhibits transition to a schizont stage
[5]; listed as AP2-PIPA
  transition to schizont stage / schizont formation: strongly inhibit schizont formation
[6]
  pKd: 8.40
[7]; mouse, in vivo, ip, 10 mg/kg
  AST activity: an upward trend was observed
[7]; [11]
  deaths: No deaths were observed
  general conditions, weight change, hematology test, blood chemistry test, autopsy: no changes that were considered to be abnormal were found
[7]; single intraperitoneal administration, mice
  minimum lethal dose: greater than 20 mg/kg
[8]; artemisinin-resistant plasmodium strain
  IC50, proliferation (parasitemia): lower IC50

## CC(=O)Nc1cc(C(=O)Nc2cc(C(=O)NCCC(=O)Nc3cn(C)c(C(=O)Nc4cc(C(=O)NCCCC(=O)Nc5cn(C)c(C(=O)Nc6cc(C(=O)Nc7cc(C(=O)NCCC(=O)Nc8cc(C(=O)NCCC(=O)NCCCN(C)C)n(C)c8)n(C)c7)n(C)c6)n5)n(C)c4)n3)n(C)c2)n(C)c1 [AP2-PIPA2]
[5]; human red blood cells
  life cycle of P. falciparum (microscopic observation, Giemsa staining): thought to be effective at a higher concentration range than that used in this experiment
[8]; any of the Plasmodium strains
  inhibitory effects on proliferation (parasitemia): no inhibitory effects

## Cc1nccnc1N1CCN(S(=O)(=O)c2ccc(-c3ccc(=O)[nH]n3)s2)CC1 [MBX-4055]
Plasmodium spp.
  proliferation of Plasmodium spp.: known to inhibit proliferation of Plasmodium spp.

## C[C@@H]1CC[C@H]2[C@@H](C)C(=O)O[C@@H]3O[C@@]4(C)CC[C@@H]1[C@]32OO4 [artemisinin, reference compound]
[4]; administration alone
  therapeutic effect on malaria infection (parasitemia): an effect of artemisinin could not be observed
